Data: US20170029494A1, “Antigen Binding Constructs” (Glaxo Group Limited, priority 2011, published 2017)
“And” between values parts separate entries of the source, which are not always exact repeats. Equal entries are not always repeated. One block for each molecule: values may come before it.

Assays:
[1] = system: human VEGF165 induced blood-retinal breakdown; assay: VEGF induced blood-retinal breakdown: rabbit retinal leakage model; assay type: in vivo; set-up: Geometric mean (right eye values adjusted for left eye values): unit not given here; conditions: for Ratio vs Vehicle / % reduction vs vehicle: Example 9, Table 4B; for Rt ratio of vitreoretinal fluorescein contents between right-induced and left eyes: Example 9; for Geometric mean (right eye values adjusted for left eye values): Example 42, Table 15B (i)
VEGFR1 (Flt1) = VEGFR1 (Flt1) (Homo sapiens, UniProt P17948); conditions: background statement; cited from earlier work
Chain of VEGFR1 (Flt1) (P17948 27-1338, species assumed): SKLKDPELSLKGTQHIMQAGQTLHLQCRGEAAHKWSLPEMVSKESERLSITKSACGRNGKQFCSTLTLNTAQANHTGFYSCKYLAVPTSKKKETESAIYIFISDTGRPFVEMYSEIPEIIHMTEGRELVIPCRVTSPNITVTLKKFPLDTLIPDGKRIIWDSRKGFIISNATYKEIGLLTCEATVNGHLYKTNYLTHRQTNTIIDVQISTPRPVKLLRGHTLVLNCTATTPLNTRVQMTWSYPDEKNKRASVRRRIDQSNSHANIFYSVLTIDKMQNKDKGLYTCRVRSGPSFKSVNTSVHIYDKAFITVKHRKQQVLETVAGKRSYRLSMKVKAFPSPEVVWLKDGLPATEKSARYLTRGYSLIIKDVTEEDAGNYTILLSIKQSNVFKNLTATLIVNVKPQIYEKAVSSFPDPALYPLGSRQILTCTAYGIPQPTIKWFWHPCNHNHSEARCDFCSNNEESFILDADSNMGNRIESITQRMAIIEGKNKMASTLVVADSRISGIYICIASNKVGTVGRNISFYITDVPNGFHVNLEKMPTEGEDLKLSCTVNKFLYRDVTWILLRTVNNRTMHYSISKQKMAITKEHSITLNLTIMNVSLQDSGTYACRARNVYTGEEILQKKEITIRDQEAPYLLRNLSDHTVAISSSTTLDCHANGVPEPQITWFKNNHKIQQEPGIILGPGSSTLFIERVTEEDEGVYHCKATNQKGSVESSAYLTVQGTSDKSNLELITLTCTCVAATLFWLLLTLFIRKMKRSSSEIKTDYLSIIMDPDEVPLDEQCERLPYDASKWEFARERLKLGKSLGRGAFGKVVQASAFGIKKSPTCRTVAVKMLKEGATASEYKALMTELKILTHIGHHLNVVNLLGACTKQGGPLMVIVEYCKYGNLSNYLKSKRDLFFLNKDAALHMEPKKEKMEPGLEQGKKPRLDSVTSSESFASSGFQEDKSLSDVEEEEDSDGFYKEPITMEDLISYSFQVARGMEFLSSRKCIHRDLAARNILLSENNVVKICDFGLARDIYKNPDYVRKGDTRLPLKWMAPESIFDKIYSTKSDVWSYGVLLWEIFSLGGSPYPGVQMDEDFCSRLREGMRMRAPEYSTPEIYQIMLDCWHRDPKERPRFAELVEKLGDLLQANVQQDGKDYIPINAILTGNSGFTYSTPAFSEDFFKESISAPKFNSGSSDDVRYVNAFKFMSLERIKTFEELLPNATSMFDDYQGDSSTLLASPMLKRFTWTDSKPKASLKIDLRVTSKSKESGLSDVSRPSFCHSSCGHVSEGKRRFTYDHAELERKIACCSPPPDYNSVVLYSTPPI

[2] = system: VEGF165-induced proliferation of human umbilical vein endothelial cells (HUVEC); assay: Human Umbilical Cord Endothelial Cell (HUVEC) proliferation assay; assay type: cell-based; conditions: for Predicted Means for Max % Inhibition, Estimate: weighted mixed model analysis
Protocol: The assay measures the extent of endothelial cell proliferation induced by a defined concentration of VEGF165 and the ability of VEGF antagonists to block this effect. HUVECs were seeded at 5000 cells per well in 96-well gelatine-coated plates, leaving outer wells free of cells, and incubated for several hours to permit adherence. Test molecules were assayed at equimolar concentrations (max 3.33×10^−08M) with a 2-fold serial dilution, each in triplicate. The VEGF165 was prepared in basal medium to achieve 75 ng/ml final concentration. Medium was removed manually from the cell monolayers and 50 μl basal media was added to prevent the cells from drying out. 25 μl VEGF165-containing medium and 25 μl basal medium or test antibody-containing medium was added as appropriate. Cells were incubated for 72 hrs, after which time the total number of cells was determined using Cell Titre Glo.
The data was analysed using GraphPad Prism using a Sigmodial curve fit, variable slope cf a non-linear regression (variable slope). Individual curve fits were fitted for each molecule and at each day. Due to some poor fitting, it was decided to introduce constraints for the curve where a plateau was not observed at the lower concentration. This constraint would be equal to the mean of the points at the lowest concentration. Data was manually selected as to whether the minimum was constrained or not, and the curve fit and parameters were automatically updated based upon this criteria selection. Estimates of the curve maxima and the standard error were analysed using a weighted mixed model analysis of variance, using 1/(standard error)^2, [SE]^2, as a weighting. The analysis adjusted for variability between plates and days using random effects terms. […] The same analysis was then performed on the log 10 scale for the IC50, and the results back transformed.
The data was analysed using GraphPad Prism using a Sigmodial curve fit, variable slope cf a non-linear regression (variable slope). Individual curve fits were fitted for each molecule and at each day. Due to some poor fitting, it was decided to introduce constraints for the curve where a plateau was not observed at the lower concentration. One plate was excluded from the analysis due to poor curve fitting despite constraints. This constraint would be equal to the mean of the points at the lowest concentration. Data was manually selected as to whether the minimum was constrained or not, and the curve fit and parameters were automatically updated based upon this criteria selection. Estimates of the curve maxima and the standard error were analysed using a weighted mixed model analysis of variance, using 1/(standard error)^2, [SE]^2, as a weighting. The analysis adjusted for variability between plates and days using random effects terms. […]

[3] = target: T1, mVEGF R2 Fc (R&D 443-KD/CF) (mouse, UniProt P35918 20-762); assay: MSD on coated mouse VEGF164 (1ug/mL mVEGF capture), detection with sulfo-TAG anti-human IgG Fc
T1 construct: Bought control protein; not shown: Fc part of the bought fusion
T1 sequence (P35918 20-762 limits assumed): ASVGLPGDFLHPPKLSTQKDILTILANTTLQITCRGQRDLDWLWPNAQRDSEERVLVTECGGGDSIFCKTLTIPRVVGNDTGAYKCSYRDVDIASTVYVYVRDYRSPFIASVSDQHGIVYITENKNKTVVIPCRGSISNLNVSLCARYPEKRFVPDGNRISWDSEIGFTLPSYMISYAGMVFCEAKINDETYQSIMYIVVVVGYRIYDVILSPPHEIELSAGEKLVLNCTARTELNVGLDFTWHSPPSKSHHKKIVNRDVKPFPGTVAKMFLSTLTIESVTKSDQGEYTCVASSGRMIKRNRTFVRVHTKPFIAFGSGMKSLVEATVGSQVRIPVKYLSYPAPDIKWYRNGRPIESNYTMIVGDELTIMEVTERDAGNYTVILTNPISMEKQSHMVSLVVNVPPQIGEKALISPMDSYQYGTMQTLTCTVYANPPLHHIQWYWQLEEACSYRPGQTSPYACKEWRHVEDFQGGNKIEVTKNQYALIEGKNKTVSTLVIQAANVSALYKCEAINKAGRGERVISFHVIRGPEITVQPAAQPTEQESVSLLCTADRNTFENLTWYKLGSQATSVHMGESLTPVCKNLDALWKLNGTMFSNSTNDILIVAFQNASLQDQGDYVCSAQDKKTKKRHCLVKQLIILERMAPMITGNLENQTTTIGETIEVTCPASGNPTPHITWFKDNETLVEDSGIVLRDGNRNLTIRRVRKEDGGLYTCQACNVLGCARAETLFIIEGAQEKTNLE

[4] = dose H (high), VEGF induced retinal leakage
[5] = Example 42, Table 15B (ii), 2000 μg/eye

Molecule: Ranibizumab [Lucentis]
Ratio vs Vehicle ([1]; dose H (high)): 0.1826
% reduction vs vehicle [1, 4]: 82%
% reduction vs vehicle ([1]; dose H (high), VEGF induced retinal leakage, listed as Ranibizumab): 82%
Ratio vs Vehicle ([1]; low dose (L)): 0.2188
% reduction vs vehicle ([1]; low dose (L), VEGF induced retinal leakage): 78%
% reduction vs vehicle ([1]; low dose (L), VEGF induced retinal leakage, listed as Ranibizumab): 78%
Rt ratio of vitreoretinal fluorescein contents between right-induced and left eyes ([1]; IVT Day -7, 500 ng rhVEGF165 Day 0, read Day 2, dose H (high)): 1.05±0.52
Rt ratio of vitreoretinal fluorescein contents between right-induced and left eyes ([1]; IVT Day -7, 500 ng rhVEGF165 Day 0, read Day 2, low dose (L)): 1.81±1.76

Molecule: VEGF
Kd (VEGFR1 (Flt1)): ~0.03 nM

Molecule: Bevacizumab [Avastin]
inhibit HUVEC proliferation ([2]; Example 8, VEGF165 75 ng/ml, 72 hrs, maximum extent of inhibition): ~100%
inhibition of VEGF driven HUVEC proliferation (extent) ([2]; Example 18, data not shown): ~100%
Predicted Means for Max % Inhibition, Estimate ([2]; Table 14A): 73.5423%
Predicted Means for Max % Inhibition, Estimate ([2]; Table 18A): 71.0316%
% reduction vs vehicle [1, 4]: 75%
% reduction vs vehicle ([1]; dose H (high), VEGF induced retinal leakage, listed as Bevacizumab): 75%
Geometric mean (right eye values adjusted for left eye values) ([1]; dose H, IVT Day -7): 12332.94
Geometric mean (right eye values adjusted for left eye values) ([1]; dose L): 12037.98
Geometric mean (right eye values adjusted for left eye values) ([1]; dose L/3): 14592.62
% reduction ([1]; Example 42, Table 15B (ii), dose H): 75.8207%
% reduction ([1]; Example 42, Table 15B (ii), dose L): 76.3990%
% reduction ([1]; Example 42, Table 15B (ii), dose L/3): 71.3905%
reduction of VEGF induced retinal leakage ([1]; Example 42, the three different doses (H, L, L/3)): 71.4-76.4%

Molecule: C[C@]12C=CC(=O)C=C1CC[C@H]1[C@@H]3C[C@@H](O)[C@](O)(C(=O)CO)[C@@]3(C)C[C@H](O)[C@@]12F [Kenacort, Triamcinalone]
% reduction vs vehicle ([1]; 2000 μg/eye): 85%
Ratio vs Vehicle ([1]; 2000 μg/eye): 0.1485
Rt ratio of vitreoretinal fluorescein contents between right-induced and left eyes ([1]; Kenacort 2000 μg/eye IVT Day -7): 1.15±0.61
Geometric mean (right eye values adjusted for left eye values) ([1]; 2000 μg/eye): 10205.21
% reduction [1, 5]: 80% and 79.9922%
ratio (to vehicle) [1, 5]: 0.2001

binding result [3]: binds
B1: mouse VEGF164 (R&D 493-MV/CF) (ligand, UniProt Q00731-2 27-190, looked up)
chain: APTTEGEQKSHEVIKFMDVYQRSYCRPIETLVDIFQEYPDEIEYIFKPSCVPLMRCAGCCNDEALECVPTSESNITMQIMRIKPHQSQHIGEMSFLQHSRCECRPKKDRTKPENHCEPCSERRKHLFVQDPQTCKCSCKNTDSRCKARQLELNERTCRCDKPRR
notes: Bought reagent; also called mVEGF164; murine VEGF164
